Where two headings read alike, the source gives them in different places.
Assay: Pharmacokinetic study, bioavailability of folic acid encapsulated in zein nanoparticles
Format: in vivo, male Wistar rats
Settings: male, Wistar; for bioavailability: serum, rat, read-out: FR (relative bioavailability in percentage); for AUC: read-out: AUC (×10^4) (converted)
Experimental: The pharmacokinetic studies were carried out according to the rules of the ethics committee of the Institution as well as the European laws on experimental animals (86/609/EU). To that end, 20 male Wistar rats with an average weight of 200 g were subjected to normal conditions of light-darkness (12 hours-12 hours), and during the week before the study they were fed with a folic acid-deficient feed (Folic Acid Deficient Diet. TD. 95247. Harlan, USA) and water. Twelve hours before the administration of the formulations, the rats were isolated in metabolic cages without access to food, but with free access to drinking water.
The animals were divided into 4 treatment groups (5 rats per group). Only 1 mL of PBS (Phosphate Buffer, pH 7.4) was orally administered to the first of the group. The two following groups were treated with single oral doses of 1 mg/kg (200 μg/rat) of folic acid (Aditio, Panreac Quimica, Barcelona, Spain) incorporated in zein nanoparticles, or in free form (not encapsulated) dissolved in water. 1 mL of each of the different formulations dispersed in water was administered through a gastroesophageal cannula. Finally, the same dose of free folic acid (1 mg/kg) dissolved in phosphate buffer (PBS) (0.5 mL) was intravenously administered to the fourth group in the saphenous vein. Before the administration of the formulations, blood was extracted from the tail saphenous vein for the purpose of checking the baseline level of the vitamin in each rat. After the administration, a volume of blood of approximately 500 μL was extracted at different times using serum-separating tubes ([…] Microtube 1.1 mL Z-Gel). In all the cases, to prevent the pain of the rats, the extraction was carried out after anesthetizing the animal with inhalational anesthesia (isoflurane:oxygen), checking their vital signs at all times.
The blood volume was subsequently replaced by intraperitoneally administering 500 μL of physiological saline previously heated to the temperature of the animal. During this period, the condition of the animals (mobility, aggressiveness, allergic reactions and temperature) was examined, no significant changes being observed.
The quantification of folic acid in the serum samples, obtained after centrifuging the tubes with blood (6,000 rpm, 20 minutes, 20° C.), was carried out by means of an enzyme immunoassay technique. To that end, an Elisa Kit (Diagnostic automation, INC. Calabasas, Calif. USA) approved by the FDA for the quantitative determination of folic acid in foods, was used. The serum samples were quantified without prior treatment and following the manufacturer's specifications.
In all the studied cases, the differences in the serum folic acid concentrations found by both methods were less than 10%. Therefore, the enzyme immunoassay technique was chosen to quantify all the samples, since it requires a smaller amount of serum for the analysis thereof and is a simpler and quicker technique, the limit of detection of which (2 ng/mL) is much lower than that of the chromatographic technique.
The pharmacokinetic study was divided into three phases. The first of them consisted of intravenously administering 1 mg/kg of folic acid dissolved in phosphate buffer; the second of them consisted of orally administering to the rats 1 mL of phosphate buffer (PBS) to a group of 5 male Wistar rats (the baseline levels of the vitamin over time were studied in this group of rats). Finally, the third phase consisted of orally administering 1 mg/kg of (i) folic acid dissolved in water, (ii) folic acid encapsulated in zein nanoparticles to groups of rats formed by 5 animals.
After the administration, a volume of blood of approximately 500 μL was extracted at different times (0, 1, 2, 3, 8 and 24 hours) and collected in serum-separating tubes, subsequently recovering the blood volume of the animal with an equivalent volume of saline by intraperitoneal route. […]

[1] = rat serum, intravenous route, 1 mg/kg folic acid in PBS, mean ± SD, n = 5
[2] = rat serum, oral route, 1 mg/kg folic acid, mean ± SD, n = 5

- bioavailability (intravenous route, 1 mg/kg folic acid in PBS): 100%
- bioavailability (oral route, 1 mg/kg folic acid, mean ± SD, n = 5): 36.3 ± 7.2%
- Cmax [1]: 4230 ± 1650 ng/mL
- MRT [1]: 57.8 min
- AUC [1]: 3580 ng·h/mL
- Cmax [2]: 191 ± 41 ng/mL
- MRT [2]: 384 min
- Tmax [2]: 58.8 min
- AUC [2]: 1300 ng·h/mL
Compound: Nc1nc2ncc(CNc3ccc(C(=O)N[C@@H](CCC(=O)O)C(=O)O)cc3)nc2c(=O)[nH]1 [Non-encapsulated FA, folic acid]

From patent US9381252B2, “Nanoparticles for encapsulation of compounds, the production and uses thereof” (UNIVERSIDAD DE NAVARRA, priority 2010, dated 2016)
